Measured values: ChEMBL document CHEMBL1909046, “DrugMatrix in vitro pharmacology data”

Assays:
[1] = DRUGMATRIX: Glutamate, NMDA, Phencyclidine radioligand binding (ligand: [3H] TCP); type: cell membranes, Rattus norvegicus, Wistar, Cerebral cortex, Membrane; conditions: Not Active = under 50% inhibition at 10 µM
[2] = molecular target: Melanocortin receptor 5 (Homo sapiens, UniProt P33032); type: cell membranes, HEK293, Membrane; conditions: hek293; note: in other assays of this panel Not Active means under 50% inhibition at 10 µM
[3] = molecular target: Delta-type opioid receptor (Homo sapiens, UniProt P41143); type: cell membranes, HEK293, Membrane; conditions: hek293; note: in other assays of this panel Not Active means under 50% inhibition at 10 µM
[4] = DRUGMATRIX: Phosphodiesterase PDE4 enzyme inhibition (substrate: [3H]cAMP + cAMP); conditions: u-937; Not Active = under 50% inhibition at 10 µM
[5] = molecular target: Protein phosphatase 3 catalytic subunit alpha (Homo sapiens, UniProt Q08209); set-up: species or system Escherichia coli;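 note: inhibition of calcineurin (PP2B) enzyme activity, measured with DiFMUP as the substrate; in other assays of this panel Not Active means under 50% inhibition at 10 µM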
[6] = molecular target: Cytochrome P450 2C19 (Homo sapiens, UniProt P33261); conditions: bti-tn-5b1-4; note: in other assays of this panel Not Active means under 50% inhibition at 10 µM
[7] = molecular target: Cytochrome P450 3A4 (Homo sapiens, UniProt P08684); conditions: bti-tn-5b1-4; note: in other assays of this panel Not Active means under 50% inhibition at 10 µM
Cytochrome P450 3A4, sequence (P08684 whole entry): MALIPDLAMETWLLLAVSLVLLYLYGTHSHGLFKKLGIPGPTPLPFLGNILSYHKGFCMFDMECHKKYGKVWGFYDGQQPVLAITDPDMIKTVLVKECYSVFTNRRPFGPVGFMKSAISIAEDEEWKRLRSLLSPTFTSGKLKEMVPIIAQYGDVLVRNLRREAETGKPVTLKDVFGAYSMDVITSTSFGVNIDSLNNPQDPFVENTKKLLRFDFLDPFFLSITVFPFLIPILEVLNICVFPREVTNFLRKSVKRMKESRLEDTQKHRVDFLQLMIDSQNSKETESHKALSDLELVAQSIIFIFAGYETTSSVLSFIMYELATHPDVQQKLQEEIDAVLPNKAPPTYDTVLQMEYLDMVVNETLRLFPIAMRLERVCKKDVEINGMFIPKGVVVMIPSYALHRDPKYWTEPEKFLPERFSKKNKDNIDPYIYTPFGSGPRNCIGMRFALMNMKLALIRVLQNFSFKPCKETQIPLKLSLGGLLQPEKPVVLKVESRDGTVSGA

Cytochrome P450 2C19, sequence (P33261 whole entry): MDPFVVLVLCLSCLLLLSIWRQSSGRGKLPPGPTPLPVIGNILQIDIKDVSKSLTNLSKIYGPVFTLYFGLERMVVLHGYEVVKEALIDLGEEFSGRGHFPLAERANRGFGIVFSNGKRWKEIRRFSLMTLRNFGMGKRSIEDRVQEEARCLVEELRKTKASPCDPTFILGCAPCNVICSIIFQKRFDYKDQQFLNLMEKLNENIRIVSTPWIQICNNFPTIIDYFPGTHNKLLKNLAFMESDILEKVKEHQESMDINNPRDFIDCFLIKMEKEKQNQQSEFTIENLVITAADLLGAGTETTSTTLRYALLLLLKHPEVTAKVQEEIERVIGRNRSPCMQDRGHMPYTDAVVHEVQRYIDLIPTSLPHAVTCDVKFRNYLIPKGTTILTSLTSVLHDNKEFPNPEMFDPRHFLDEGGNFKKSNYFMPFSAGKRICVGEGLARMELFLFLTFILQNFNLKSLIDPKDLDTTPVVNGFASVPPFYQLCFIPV
Delta-type opioid receptor, sequence (P41143 whole entry): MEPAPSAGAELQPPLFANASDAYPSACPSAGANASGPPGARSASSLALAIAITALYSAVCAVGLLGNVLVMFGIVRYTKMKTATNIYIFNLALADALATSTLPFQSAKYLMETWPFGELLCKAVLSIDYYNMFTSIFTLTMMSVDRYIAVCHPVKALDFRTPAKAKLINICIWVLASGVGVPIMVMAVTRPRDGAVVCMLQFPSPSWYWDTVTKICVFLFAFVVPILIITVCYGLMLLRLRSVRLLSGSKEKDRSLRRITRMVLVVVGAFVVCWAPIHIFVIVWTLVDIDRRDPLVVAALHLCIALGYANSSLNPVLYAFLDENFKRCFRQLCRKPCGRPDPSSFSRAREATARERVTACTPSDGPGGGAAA
Melanocortin receptor 5, sequence (P33032 whole entry): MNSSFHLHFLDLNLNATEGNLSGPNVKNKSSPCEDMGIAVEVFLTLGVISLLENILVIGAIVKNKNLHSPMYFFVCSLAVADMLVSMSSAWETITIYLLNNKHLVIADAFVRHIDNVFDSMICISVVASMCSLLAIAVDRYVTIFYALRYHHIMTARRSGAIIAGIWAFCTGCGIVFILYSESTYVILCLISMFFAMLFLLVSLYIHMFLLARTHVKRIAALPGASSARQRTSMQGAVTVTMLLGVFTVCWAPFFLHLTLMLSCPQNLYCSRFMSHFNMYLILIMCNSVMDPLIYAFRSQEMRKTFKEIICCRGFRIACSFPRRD

COc1ccccc1OCCNCC(O)COc1cccc2[nH]c3ccccc3c12 (centres undefined) [CARVEDILOL]
Not Active: IC50 [1] | Ki [1] | IC50 [2] | IC50 [3] | IC50 [4] | Ki [4] | IC50 [5] | IC50 [6] | Ki [6] | IC50 [7] | Ki [7]

O=C(NCCN1CCOCC1)c1ccc(Cl)cc1 [MOCLOBEMIDE]
Not Active: IC50 [1] | Ki [1] | IC50 [2] | IC50 [3] | IC50 [4] | Ki [4] | IC50 [5] | IC50 [6] | Ki [6] | IC50 [7] | Ki [7]

C=CCO [ALLYL ALCOHOL]
Not Active: IC50 [1] | Ki [1] | IC50 [2] | IC50 [3] | IC50 [4] | Ki [4] | IC50 [5] | IC50 [6] | Ki [6] | IC50 [7] | Ki [7]

CC(C)Cc1ccc([C@H](C)C(=O)O)cc1 [DEXIBUPROFEN]
Not Active: IC50 [1] | Ki [1] | IC50 [2] | IC50 [3] | IC50 [4] | Ki [4] | IC50 [5] | IC50 [6] | Ki [6] | IC50 [7] | Ki [7]

O=c1[nH]cnc2c1ncn2[C@H]1CC[C@@H](CO)O1 [DIDANOSINE]
Not Active: IC50 [1] | Ki [1] | IC50 [2] | IC50 [3] | IC50 [4] | Ki [4] | IC50 [5] | IC50 [6] | Ki [6] | IC50 [7] | Ki [7]

CC(=O)Nc1ccc2c(c1)Cc1ccccc1-2 [2-ACETYLAMINOFLUORENE]
Not Active: IC50 [1] | Ki [1] | IC50 [2] | IC50 [3] | IC50 [4] | Ki [4] | IC50 [5] | IC50 [6] | Ki [6] | IC50 [7] | Ki [7]

C[C@H](C(=O)O)c1ccc2oc(-c3ccc(F)cc3)nc2c1 [FLUNOXAPROFEN]
Not Active: IC50 [1] | Ki [1] | IC50 [2] | IC50 [3] | IC50 [4] | Ki [4] | IC50 [5] | IC50 [6] | Ki [6] | IC50 [7] | Ki [7]

CC(C)Cn1cnc2c(N)nc3ccccc3c21 [IMIQUIMOD]
Not Active: IC50 [1] | Ki [1] | IC50 [2] | IC50 [3] | IC50 [4] | Ki [4] | IC50 [5] | IC50 [6] | Ki [6] | IC50 [7] | Ki [7]

OC[C@H]1OC2C3[C@@H](CO)OC(O[C@H]4[C@H](O)[C@@H](O)[C@@H](O[C@H]5[C@H](O)[C@@H](O)[C@@H](O[C@H]6[C@H](O)[C@@H](O)[C@@H](O[C@H]7[C@H](O)[C@@H](O)[C@@H](O[C@H]8[C@H](O)[C@@H](O)[C@@H](O[C@H]9[C@H](O)[C@@H](O)C(OC1[C@H](O)[C@H]2O)O[C@@H]9CO)O[C@@H]8CO)O[C@@H]7CO)O[C@@H]6CO)O[C@@H]5CO)O[C@@H]4CO)[C@H](O)[C@H]3O
Not Active: IC50 [1] | Ki [1] | IC50 [2] | IC50 [3] | IC50 [4] | Ki [4] | IC50 [5] | IC50 [6] | Ki [6] | IC50 [7] | Ki [7]

CCN1CCN(c2cc3c(cc2F)c(=O)c(C(=O)O)cn3C2CC2)CC1 [ENROFLOXACIN]
Not Active: IC50 [1] | Ki [1] | IC50 [2] | IC50 [3] | IC50 [4] | Ki [4] | IC50 [5] | IC50 [6] | Ki [6] | IC50 [7] | Ki [7]

POVIDONE
Not Active: IC50 [1] | Ki [1] | IC50 [2] | Ki [2] | IC50 [3] | Ki [3] | IC50 [4] | Ki [4] | IC50 [5] | Ki [5] | IC50 [6] | Ki [6] | IC50 [7] | Ki [7]

C=C(Cl)Cl [1,1-DICHLOROETHENE]
Not Active: IC50 [1] | Ki [1] | IC50 [2] | IC50 [3] | IC50 [4] | Ki [4] | IC50 [5] | IC50 [6] | Ki [6] | IC50 [7] | Ki [7]

Oc1ncnc2[nH]ncc12 [ALLOPURINOL]
Not Active: IC50 [1] | Ki [1] | IC50 [2] | IC50 [3] | IC50 [4] | Ki [4] | IC50 [5] | IC50 [6] | Ki [6] | IC50 [7] | Ki [7]

CCC1(c2ccccc2)C(=O)NC(=O)NC1=O [PHENOBARBITAL]
Not Active: IC50 [1] | Ki [1] | IC50 [2] | IC50 [3] | IC50 [4] | Ki [4] | IC50 [5] | IC50 [6] | Ki [6] | IC50 [7] | Ki [7]

CHROMIC CHLORIDE
Not Active: IC50 [1] | Ki [1] | IC50 [2] | Ki [2] | IC50 [3] | Ki [3] | IC50 [4] | Ki [4] | IC50 [5] | Ki [5] | IC50 [6] | Ki [6] | IC50 [7] | Ki [7]

CCCCCCNC(=O)n1cc(F)c(=O)[nH]c1=O [CARMOFUR]
Not Active: IC50 [1] | Ki [1] | IC50 [2] | IC50 [3] | IC50 [4] | Ki [4] | IC50 [5] | IC50 [6] | Ki [6] | IC50 [7] | Ki [7]

O=C(O)CCc1nc(-c2ccccc2)c(-c2ccccc2)o1 [OXAPROZIN]
Not Active: IC50 [1] | Ki [1] | IC50 [2] | IC50 [3] | IC50 [4] | Ki [4] | IC50 [5] | IC50 [6] | Ki [6] | IC50 [7] | Ki [7]

CCN1C[C@]2(COC)[C@H](O)C[C@H](OC)[C@@]34[C@@H]5C[C@@]6(O)[C@H](OC(=O)c7ccccc7)[C@@H]5[C@@](OC(C)=O)([C@@H]([C@H](OC)[C@H]23)[C@@H]14)[C@@H](O)[C@@H]6OC [ACONITINE]
Not Active: IC50 [1] | Ki [1] | IC50 [2] | IC50 [3] | IC50 [4] | Ki [4] | IC50 [5] | IC50 [6] | Ki [6] | IC50 [7] | Ki [7]
